Test [1] deals with T1, Recombinant human JAK2 (catalytic domain, amino acids 808-1132) (Homo sapiens, UniProt O60674).
T1 construct: catalytic domain, amino acids 808-1132
As to the kind of experiment: JAK2 inhibition assay. Also: 0.7 µM ATP. Type of test: biochemical. Conditions: read-out: JAK2 potency IC50.

Test [2] concerns IFNα activation of STAT1 in PBMC. As to the kind of experiment: IFNα activation of STAT1 in PBMC. Type of test: cell-based. Conditions: Homo sapiens; IFNα activation of STAT1 in PBMC; average IC50; read-out: IFNα signaling inhibitory potency IC50. The procedure, abridged: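 Human PBMC, with red cells lysed by NH4Cl, were pre-treated with compound for 30 min at 37 °C and 5% CO2. They were then stimulated for 30 min with recombinant human IFNα at 5 ng/mL final.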

Test [3] has as its target T2, Recombinant human TYK2 catalytic domain (amino acids 871-1187) (Homo sapiens, UniProt P29597).
T2 construct: catalytic domain (amino acids 871-1187)
T2 sequence (P29597 871-1187): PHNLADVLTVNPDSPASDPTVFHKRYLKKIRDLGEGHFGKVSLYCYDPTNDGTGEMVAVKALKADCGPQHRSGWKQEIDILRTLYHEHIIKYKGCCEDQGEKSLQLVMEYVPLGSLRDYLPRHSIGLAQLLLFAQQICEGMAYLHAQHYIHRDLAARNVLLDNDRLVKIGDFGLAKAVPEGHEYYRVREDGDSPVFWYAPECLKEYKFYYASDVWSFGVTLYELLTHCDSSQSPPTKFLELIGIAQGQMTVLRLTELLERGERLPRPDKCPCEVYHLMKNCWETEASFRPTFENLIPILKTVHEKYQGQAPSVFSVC
As to the kind of experiment: TYK2 ADPglo kinase assay. Also: 12 µM ATP. Type of test: biochemical.

T1 sequence (O60674 808-1132): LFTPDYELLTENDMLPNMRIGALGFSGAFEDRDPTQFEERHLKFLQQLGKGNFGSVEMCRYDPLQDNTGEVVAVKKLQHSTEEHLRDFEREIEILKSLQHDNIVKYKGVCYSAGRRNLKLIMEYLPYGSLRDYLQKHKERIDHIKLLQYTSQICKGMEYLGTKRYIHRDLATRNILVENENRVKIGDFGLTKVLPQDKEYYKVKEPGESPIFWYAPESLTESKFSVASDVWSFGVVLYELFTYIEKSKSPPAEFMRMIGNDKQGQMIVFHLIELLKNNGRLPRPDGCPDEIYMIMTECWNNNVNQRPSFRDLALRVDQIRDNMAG

As usually defined, the IC50 is the concentration at which inhibition is half-maximal. For `Cc1cc(C#N)ncc1Nc1cc(Nc2ccc(C(=O)N(C)C)cn2)c2ncn(C)c2n1` [Compound 67, 6-[[5-[(6-cyano-4-methyl-3-pyridyl)amino]-3-methyl-imidazo[4,5-b]pyridin-7-yl]amino]-N,N-dimethyl-pyridine-3-carboxamide], the IC50 was 28.2 nM in test [1] and 51 nM in test [2].

Regarding `Cn1cnc2c(Nc3ccc(S(C)(=O)=O)cn3)cc(NC(C3CC3)C(F)(F)F)nc21` (stereo not shown) [Compound 92, N5-(1-cyclopropyl-2,2,2-trifluoro-ethyl)-3-methyl-N7-(5-methylsulfonyl-2-pyridyl)imidazo[4,5-b]pyridine-5,7-diamine], the IC50 worked out at 1.17 nM in test [1], 0.58 nM in test [3] and 67 nM in test [2].

With `Cc1cc(C#N)ncc1N(c1cc(Nc2cc(N)ncn2)c2ncn(C)c2n1)C1CC1` [Compound 88, 5-[[7-[(6-aminopyrimidin-4-yl)amino]-3-methyl-imidazo[4,5-b]pyridin-5-yl]-cyclopropyl-amino]-4-methyl-pyridine-2-carbonitrile], the 50% inhibitory concentration (IC50) in test [1] is 1.42 nM; in test [3], 0.11 nM; in test [2] it was 14 nM.

As to `CC(C)C(Nc1cc(Nc2cc(N)ncn2)c2ncn(C)c2n1)C(F)(F)F` (stereo not shown) [Compound 93, N7-(6-aminopyrimidin-4-yl)-3-methyl-N5-[2-methyl-1-(trifluoromethyl)propyl)imidazo[4,5-b]pyridine-5,7-diamine], the concentration for half-maximal inhibition (IC50) stood at 16.4 nM in test [1] and 65 nM in test [2].

Take `Cc1cc(C(F)(F)F)ncc1Oc1cc(Nc2cc(N)ncn2)c2ncn(C)c2n1` [Compound 1, N-[3-Methyl-5-(4-methyl-6-trifluoromethyl-pyridin-3-yloxy)-3H-imidazo[4,5-b]pyridin-7-yl]-pyrimidine-4,6-diamine]: the IC50 in test [1] came to 67.3 nM; in test [2], 85.5 nM.

`Cc1cc(C#N)ncc1Oc1cc(Nc2ccc(S(=O)(=O)C(F)F)cc2)c2ncn(C)c2n1` [Compound 68, 5-[7-[4-(difluoromethylsulfonyl)anilino]-3-methyl-imidazo[4,5-b]pyridin-5-yl]oxy-4-methyl-pyridine-2-carbonitrile]: the 50% inhibitory concentration (IC50) is 175 nM in test [1] and 128 nM in test [2].

Turning to `Cc1cc(C#N)ncc1Oc1cc(Nc2ccc(S(=O)(=O)C3CC3)cc2)c2ncn(C)c2n1` [Compound 69, 5-[7-(4-cyclopropylsulfonylanilino)-3-methyl-imidazo[4,5-b]pyridin-5-yl]oxy-4-methyl-pyridine-2-carbonitrile], the half-inhibitory concentration (IC50) worked out at 70 nM in test [1] and 90 nM in test [2].

The record behind these values is patent US11564923B2, “Compounds and pharmaceutical compositions thereof for the treatment of inflammatory disorders” (Galapagos NV, priority 2017, dated 2023).
